According to US9175013B2, “Fused aminodihydrothiazine derivatives” (Eisai R&D Management Co., Ltd., priority 2011, dated 2015):
Like-named read-outs stand apart in the source and are kept apart here.

Test: Rat in vivo CNS penetration: plasma, brain and CSF concentrations by LC-MS/MS
Conditions: male, Sprague Dawley, po, 10 mg/kg, 10 mg/kg p.o.; for concentration at 2 h / Kp at 2 h: 2 h post-dose; for concentration at 4 h / Kp at 4 h: 4 h post-dose; for concentration at 6 h / Kp at 6 h: 6 h post-dose; for concentration at 8 h / Kp at 8 h: 8 h post-dose
Description: Rat In Vivo CNS Penetration Male Sprague Dawley rats were acquired from Charles River UK Ltd. (Margate, UK) and housed according to UK Home Office guidelines. Drugs were made up to the appropriate concentrations in 0.5% methyl cellulose. Animals were dosed orally (2 mL/kg) by gavage at the doses outlined in Tables 1 to 4 below. At the time points post-dosing, specified in the Tables 1 to 4 below the animals were administered an i.p. injection of sodium pentobarbitone (approximately 330 mg/kg for terminal anaesthesia). Using a guillotine, the animals were decapitated and trunk blood collected into 15 ml Falcon tubes containing 100 IU heparin. Blood was vortexed followed by centrifugation at 6000 rpm, 4° C. for 5 minutes. Plasma was collected for DMPK and ELISA assays and stored at −80° C. until use. Brains were dissected out and divided along the midline, weighed and stored at −80° C. until further use. Method for Analysis of Plasma, Brain and CSF Samples Test compound was prepared as a 1 mg free base/mL solution in DMSO, vortexed and sonicated for 5 min. The 1 mg/mL DMSO solution was diluted to 10 and 30 μg/mL acetonitrile stocks, by adding 10 μL to 990 μL acetonitrile and 30 μL to 970 acetonitrile, respectively. The 10 and 30 μg/mL acetonitrile stocks were then serially diluted 1:9 (v/v) (100 μL stock into 900 μL acetonitrile) to give the following solutions: 0.003, 0.01, 0.03, 0.1, 0.3, 1, 3, 10 and 30 μg/mL acetonitrile. Control male Sprague Dawley rat plasma and the study plasma samples were stored at −80° C. until the day of analysis when they were thawed at room temperature. Control plasma was centrifuged (2,000 g for 10 min) and aliquoted (90 μL) into eppendorf tubes for preparation of standards and blank samples. Study samples were previously aliquoted (100 μL) into eppendorf tubes immediately following collection of the plasma. An aliquot (10 μL) of the appropriate acetonitrile stock was added to the control plasma (to give a final volume of 100 μL) to give the required calibration standards covering the range 1-3000 ng/mL. Double blank and blank samples were prepared by adding 10 μL of acetonitrile to 90 μL of blank plasma. Control male Sprague Dawley rat brain and the study brain samples were weighed after collection and stored at −80° C. until the day of analysis when they were thawed at room temperature. Once thawed brains were diluted with water (4 mL per gram of tissue) and homogenised using a mechanical homogeniser. An aliquot (100 μL) of each study sample was taken into Micronics tubes ready for analysis and sufficient aliquots (90 μL) of control brain homogenate prepared for preparation of standards and blanks. An aliquot (10 μL) of the appropriate acetonitrile stocks was added to the control brain homogenate (to give a final volume of 100 μL) to give the required calibration standards covering the range 1.5-5000 ng/g. Double blank and blank samples were prepared by adding 10 μL of acetonitrile to 90 μL of blank brain homogenate. Each plasma and brain homogenate sample, standard and blank (100 μL) was extracted with an aliquot (300 μL) of acetonitrile (containing 0.1% formic acid and 100 ng/mL of an appropriate internal standard). Double blanks were extracted with an aliquot (300 μL) of acetonitrile containing 0.1% formic acid). All samples, standards and blanks were then vortex mixed and centrifuged (2000 g for 15 min). An aliquot (50 μL) of the resulting supernatant was then taken into a 2 mL 96-deep well plate and diluted with acetonitrile:water (50:50 v/v) (150 μL) ready for analysis by a specific LC-MS/MS method. Control male Sprague Dawley rat CSF and the study CSF samples were stored at −80° C. until the day of analysis when they were thawed at room temperature. An aliquot (50 μL) of each study sample was taken into Micronics tubes ready for analysis and sufficient aliquots (45 μL) of control CSF prepared for preparation of standards and blanks. […]

[1] = CSF, CSF concentration, read-out: [CSF]
[2] = brain, total brain concentration, read-out: [Br]
[3] = brain, unbound brain, [Br] x Br Fu, read-out: [Bru]
[4] = plasma, total plasma concentration, read-out: [Pl]
[5] = plasma, unbound plasma, [Pl] x Pl Fu, read-out: [Plu]

| Compound | concentration at 2 h [1] [nM] | Kp at 2 h (CSF, read-out: CSF:Plu) | concentration at 4 h [1] [nM] | Kp at 4 h (CSF, read-out: CSF:Plu) | concentration at 6 h [1] [nM] | Kp at 6 h (CSF, read-out: CSF:Plu) | concentration at 8 h [1] [nM] | Kp at 8 h (CSF, read-out: CSF:Plu) | Kp at 2 h (brain, read-out: Brtot:Pltot) | Kp at 2 h (brain, read-out: Bru:Plu) | concentration at 2 h [2] [nM] | concentration at 2 h [3] [nM] | Kp at 4 h (brain, read-out: Brtot:Pltot) | Kp at 4 h (brain, read-out: Bru:Plu) | concentration at 4 h [2] [nM] | concentration at 4 h [3] [nM] | Kp at 6 h (brain, read-out: Brtot:Pltot) | Kp at 6 h (brain, read-out: Bru:Plu) | concentration at 6 h [2] [nM] | concentration at 6 h [3] [nM] | other results |
| --- | --- | --- | --- | --- | --- | --- | --- | --- | --- | --- | --- | --- | --- | --- | --- | --- | --- | --- | --- | --- | --- |
| COc1cnc(C(=O)Nc2ccc(F)c([C@]34CO[C@H](CF)[C@H]3CSC(N)=N4)c2)cn1 [Example 2, N-(3-((4aS,5S,7aS)-2-amino-5-(fluoromethyl)-4a,5,7,7a-tetrahydro-4H-furo[3,4-d][1,3]thiazin-7a-yl)-4-fluorophenyl)-5-methoxypyrazine-2-carboxamide] | 133 | 0.6 | 201 | 1.2 | 60 | 0.7 | 68 | 1.2 | 2.1 | 0.6 | 1780 | 118 | 2.1 | 0.5 | 1340 | 88 | 2 | 0.5 | 703 | 46 | Kp at 8 h (brain, read-out: Brtot:Pltot): 2.1; Kp at 8 h (brain, read-out: Bru:Plu): 0.6; concentration at 8 h [2]: 479 nM; concentration at 8 h [3]: 32 nM; concentration at 2 h [4]: 850 nM; concentration at 2 h [5]: 214 nM; concentration at 4 h [4]: 645 nM; concentration at 4 h [5]: 163 nM; concentration at 6 h [4]: 353 nM; concentration at 6 h [5]: 89 nM; concentration at 8 h [4]: 224 nM; concentration at 8 h [5]: 56 nM |
| COc1cnc(C(=O)Nc2ccc(F)c([C@]34CO[C@H](C(F)F)[C@H]3CSC(N)=N4)c2)cn1 [Example 3, N-(3-((4aS,5S,7aS)-2-amino-5-(difluoromethyl)-4a,5,7,7a-tetrahydro-4H-furo[3,4-d][1,3]thiazin-7a-yl)-4-fluorophenyl)-5-methoxypyrazine-2-carboxamide] | 34 | 0.6 | 16 | 0.5 | 15 | 0.5 | 9 | 0.7 | 2.8 | 0.7 | 1090 | 38 | 2.5 | 0.6 | 576 | 20 | 2.4 | 0.6 | 561 | 20 | Kp at 8 h (brain, read-out: Brtot:Pltot): 3; Kp at 8 h (brain, read-out: Bru:Plu): 0.7; concentration at 8 h [2]: 257 nM; concentration at 8 h [3]: 9 nM; concentration at 2 h [4]: 385 nM; concentration at 2 h [5]: 55 nM; concentration at 4 h [4]: 226 nM; concentration at 4 h [5]: 32 nM; concentration at 6 h [4]: 232 nM; concentration at 6 h [5]: 33 nM; concentration at 8 h [4]: 85 nM; concentration at 8 h [5]: 12 nM |
| COc1cnc(C(=O)Nc2cc(F)c(F)c([C@]34CO[C@H](CF)[C@H]3CSC(N)=N4)c2)cn1 [Example 4, N-(3-((4aS,5S,7aS)-2-amino-5-(fluoromethyl)-4a,5,7,7a-tetrahydro-4H-furo[3,4-d][1,3]thiazin-7a-yl)-4,5-difluorophenyl)-5-methoxypyrazine-2-carboxamide] | 33 | 0.6 | 40 | 0.6 | 13 | 0.6 | 8 | 0.6 | 3.8 | 0.6 | 1470 | 31 | 3.4 | 0.5 | 1620 | 34 | 3.8 | 0.6 | 609 | 13 | Kp at 8 h (brain, read-out: Brtot:Pltot): 3.7; Kp at 8 h (brain, read-out: Bru:Plu): 0.6; concentration at 8 h [2]: 385 nM; concentration at 8 h [3]: 8 nM; concentration at 2 h [4]: 392 nM; concentration at 2 h [5]: 51 nM; concentration at 4 h [4]: 482 nM; concentration at 4 h [5]: 63 nM; concentration at 6 h [4]: 162 nM; concentration at 6 h [5]: 21 nM; concentration at 8 h [4]: 105 nM; concentration at 8 h [5]: 14 nM |
